Patent US20240293349A1, “USE OF AN RXR AGONIST IN TREATING DRUG RESISTANT HER2+ CANCERS” (Io Therapeutics, Inc., priority 2022, published 2024)

Key:
SkBr3 cells = assay: Inhibition of breast cancer cell growth, DAPI nuclei count; format: cell-based; settings: for inhibition at 1 µM: Homo sapiens; for inhibition at 1 µM / DAPI Nuclei Count: SkBr3 cells, IRX4204 1000 nM
Source text: MCF7 is an ER^+ PR^+ Her2^− cell line. SkBr3 is an ER^− PR^− Her2^+ cell line. […] After a further 6 days, the cells were fixed with 4% paraformaldehyde in phosphate buffered saline (PBS). Nuclei were then stained with DAPI and imaged with the MetaXpress® microscope (Molecular Devices, San Jose, CA). Cell nuclei were segmented and then counted by defining pixel intensity over background and object size, using the algorithm of the MetaXpress® image analysis software. […]

HCC1954 = assay: IC50 of Her2 kinase inhibitors on Her2-amplified cell lines; format: cell-based; settings: Homo sapiens
SkBr3 = assay: as above; format: cell-based; settings: Homo sapiens, SK-BR-3
[1] = system: HCC1954 human breast cancer cells; assay: Inhibition of growth of a Her2-targeted agent resistant Her2+ cell line, DAPI nuclei count; format: cell-based; settings: for resistance of the cell line to the agent used individually: HCC1954, as compared to SkBr3; for growth inhibitory effect (FIGS. 4A-B, 5A-B), in words: HCC1954, 6 days, IRX4204 10, 100 or 1000 nM
Procedure: HCC1954 is Her2^+ cancer cell line derived from a ductal carcinoma of the breast.
HCC1954 human breast cancer cells were seeded at 3000 cells per well in 96-well plates and treated with neratinib [1 or 10 nM] or DMSO (0.1%) in combination with IRX4204 [10, 100, or 1000 nM]. After 6 days of treatment, cells were fixed with 4% paraformaldehyde. Nuclei were stained with DAPI, imaged using ImageXpress® Pico (Molecular Devices) and counted using CellReporterXpress® Analysis Software (FIGS. 4A-B) Each data point represents six replicates. Statistical significance was determined using the Bonferroni-Dunn method of multiple t-tests. Each day was analyzed individually, without assuming a consistent SD (*p<0.01).
The experiment was also conducted using tucatinib or lapatinib in place of neratinib.

MDA-MB-361 cells = assay: Inhibition of breast cancer cell growth, DAPI nuclei count; format: cell-based; settings: IRX4204 1000 nM; for inhibition at 1 µM: Homo sapiens
Source text: (§1) MCF7 is an ER^+ PR^+ Her2^− cell line. SkBr3 is an ER^− PR^− Her2^+ cell line. […] After a further 6 days, the cells were fixed with 4% paraformaldehyde in phosphate buffered saline (PBS). Nuclei were then stained with DAPI and imaged with the MetaXpress® microscope (Molecular Devices, San Jose, CA). Cell nuclei were segmented and then counted by defining pixel intensity over background and object size, using the algorithm of the MetaXpress® image analysis software. Experimental data points were performed at a minimum of quadruplicate, and results were reported as average cell count ±standard deviation (SD).
(§2) To assess if this improved growth inhibition effect was synergistic, the percent inhibition observed for the highest concentrations of the combined therapeutic agents was compared to the percent inhibition that would be expected for the combination based on the observed inhibition of the therapeutic agents used alone, if the agents acting independently, that is, without interaction (see Table 1). That is, PAE=(FE1+((1−FE1)×FE2))×100, where PAE is the predicted additive effect, FE1 is the observed fractional effect of a 1st treatment, and FE2 is the observed fractional effect of a 2nd treatment.
(§3) Additionally the panel of breast cancer cell lines was expanded to also include the ER^+ PR^+ Her2^+ cell line BT474 and the ER^+ PR^− Her2^+ cell line MDA-MB-361.
(§4) To assess if this improved growth inhibition effect was synergistic, the percent inhibition observed for the highest concentrations of the combined therapeutic agents was compared to the percent inhibition that would be expected for the combination based on the observed inhibition of the therapeutic agents used alone, if the agents acting independently, that is, without interaction (see Tables 2-4).

BT474 cells = assay: as above; format: cell-based; settings: IRX4204 1000 nM; for inhibition at 1 µM: Homo sapiens
Source text: as §1, §2, §3, §4

AU565 = assay: IC50 of Her2 kinase inhibitors on Her2-amplified cell lines; format: cell-based; settings: Homo sapiens
LXR/RXR = assay: Activation of permissive RXR heterodimers
PPAR/RXR = assay: Activation of permissive RXR heterodimers
RXR homodimers = assay: Activation of RXR homodimers
Nurr1/RXR heterodimer = assay: Activation of permissive RXR heterodimers
FXR/RXR = assay: Activation of permissive RXR heterodimers
MCF7 cells = assay: Inhibition of breast cancer cell growth, DAPI nuclei count; format: cell-based; settings: Her2− MCF7 cells; IRX4204 0-1000 nM, trastuzumab 0-10 μg/ml; 6 days
Source text: MCF7 is an ER^+ PR^+ Her2^− cell line. SkBr3 is an ER^− PR^− Her2^+ cell line. […] After a further 6 days, the cells were fixed with 4% paraformaldehyde in phosphate buffered saline (PBS). Nuclei were then stained with DAPI and imaged with the MetaXpress® microscope (Molecular Devices, San Jose, CA). Cell nuclei were segmented and then counted by defining pixel intensity over background and object size, using the algorithm of the MetaXpress® image analysis software.
as §3

RAR/RXR = assay: Activation of non-permissive RXR heterodimers
[2] = system: PPAR/RXR, FXR/RXR, or LXR/RXR; settings: cited from earlier work
[3] = SK-BR-3, neratinib experiment, Neratinib 1000 nM
[4] = neratinib experiment, Neratinib 1000 nM, control 6696
[5] = MDA-MB-361 cells, neratinib experiment, Neratinib 1000 nM, control 5297
[6] = BT-474, neratinib experiment, Neratinib 1000 nM
[7] = neratinib experiment, Neratinib 1000 nM, control 2192
[8] = SK-BR-3, lapatinib experiment, Lapatinib 1000 nM
[9] = lapatinib experiment, Lapatinib 1000 nM, control 19855
[10] = MDA-MB-361 cells, lapatinib experiment, Lapatinib 1000 nM, control 6696
[11] = BT-474, lapatinib experiment, Lapatinib 1000 nM
[12] = lapatinib experiment, Lapatinib 1000 nM, control 2937

Structure (SMILES) | inhibition at 1 µM (SkBr3 cells; [3]) | DAPI Nuclei Count (SkBr3 cells; [4]) | IC50 (HCC1954) | IC50 (SkBr3) | resistance of the cell line to the agent used individually [1] | DAPI Nuclei Count (MDA-MB-361 cells; [5]) | inhibition at 1 µM (BT474 cells; [6]) | DAPI Nuclei Count (BT474 cells; [7]) | IC50 (AU565) | inhibition at 1 µM (SkBr3 cells; [8]) | DAPI Nuclei Count (SkBr3 cells; [9]) | growth inhibitory effect (FIGS. 4A-B, 5A-B), in words [1] | DAPI Nuclei Count (MDA-MB-361 cells; [10]) | inhibition at 1 µM (BT474 cells; [11]) | DAPI Nuclei Count (BT474 cells; [12]) | further results
CCOc1cc2ncc(C#N)c(Nc3ccc(OCc4ccccn4)c(Cl)c3)c2cc1NC(=O)/C=C/CN(C)C [Neratinib, reference compound] | 86.5% | 903 | > 100 nM | 7 nM | resistant | 249 | 91.8% | 180 | 20 nM |  |  |  |  |  |  | inhibition at 1 µM (MDA-MB-361 cells; MDA-MB-361 cells, neratinib experiment, Neratinib 1000 nM): 95.3%
CC(/C=C/[C@@H]1C[C@]1(C)c1ccc2c(c1)C(C)(C)CCC2(C)C)=C\C(=O)O [IRX4204, 3,7-dimethyl-6(S),7(S)-methano,7-[1,1,4,4-tetramethyl-1,2,3,4-tetrahydron-aphth-7-yl]2(E), 4(E) heptadienoic acid] | 22.1% | 5218 |  |  | highly resistant | 2459 | 6.8% | 2043 |  | 4.8% | 18906 | no growth inhibitory effect | 5218 | -15.7% | 3399 | growth inhibitory effect (FIG. 1B), in words (SkBr3 cells; Her2+ SkBr3 cells, IRX4204 0-1000 nM, trastuzumab 0-10 μg/ml, 6 days): moderate growth inhibitory effect; inhibition at 1 µM (SkBr3 cells; SK-BR-3, 144 h, 6 days, Herceptin 1000 ng, alone or combined): 29.4%; DAPI Nuclei Count (SkBr3 cells; 6 days, Herceptin 1000 ng, alone or combined, control 25958): 18274; activation of heterodimer, in words (LXR/RXR): does not activate; activation of heterodimer, in words (PPAR/RXR): does not activate; activation of RXR homodimers, in words (RXR homodimers): specifically activate; activation of heterodimer, in words (Nurr1/RXR heterodimer): specifically activates; activation of heterodimer, in words (FXR/RXR): does not activate; inhibition at 1 µM (MDA-MB-361 cells; MDA-MB-361, MDA-MB-361 cells, lapatinib experiment, Lapatinib 1000 nM): 22.1%; inhibition at 1 µM (MDA-MB-361 cells; MDA-MB-361, MDA-MB-361 cells, neratinib experiment, Neratinib 1000 nM): 43.6%; growth inhibitory effect (FIG. 1A), in words (MCF7 cells): neither agent had more than marginal effect; activation of heterodimer, in words (RAR/RXR): does not activate
CS(=O)(=O)CCNCc1ccc(-c2ccc3ncnc(Nc4ccc(OCc5cccc(F)c5)c(Cl)c4)c3c2)o1 [Lapatinib, reference compound] |  |  | > 1400 nM | 152 nM | resistant |  |  |  | 294 nM | 88.9% | 2211 | some small effect | 903 | 58.8% | 1211 | inhibition at 1 µM (MDA-MB-361 cells; MDA-MB-361 cells, lapatinib experiment, Lapatinib 1000 nM): 86.5%
Cc1cc2c(cc1C1(c3ccc(C(=O)O)cn3)CC1)C(C)(C)CCC2(C)C [LGD268] |  |  |  |  |  |  |  |  |  |  |  |  |  |  |  | activation of one or more of PPAR/RXR, FXR/RXR, or LXR/RXR, in words [2]: activates
Cc1cc(Nc2ncnc3ccc(NC4=NC(C)(C)CO4)cc23)ccc1Oc1ccn2ncnc2c1 [Tucatinib] |  |  | > 2000 nM | 22 nM | resistant |  |  |  |  |  |  | some small effect |  |  |  | 
